Assay results taken from patent US7560121B1 (LTS Lohmann Therapie-Systeme AG, priority 1999, dated 2009).
Counter-ions that a name gives are not always drawn.

What was measured:
[1] = Solubility of fluphenazine dihydrochloride in poly(meth)acrylate pressure-sensitive adhesives; type: physicochemical
From the text: Addition of Eudragit E100 (Röhm Pharma GmbH) was therefore provided for in all cases. This poly-(meth)acrylate has trialkylamino groups in its lateral chain and is capable of functioning as an ion-exchange resin. In this way, the chloride ions of the fluphenazine dihydrochloride are bonded to Eudragit E100 while protons are accepted simultaneously, with fluphenazine being formed as a free base in a certain equilibrium. Advantageous is an at least equimolar ratio of Eudragit E100 and fluphenazine dihydrochloride, i.e. of amounts by weight having the same equivalent weight calculated as potassium hydroxide.

[2] = In vitro skin permeation through human epidermis (modified Franz cell, HPLC); type: in vitro ADME; conditions: 32° C., Oppanol-based matrix with Eudragit E100 and oleic acid, n=3
Procedure: Skin permeability was examined in vitro using full thickness cow udder skin and human epidermis, the latter having been separated from human full-thickness skin by heat separation.
The tests were carried out at 32° C. in a suitable permeation device (modified Franz cell), and fluphenazine was measured in the resultant samples using a suitable HPLC method. All indicated values are based on n=3 samples.

[3] = in vivo; cited from earlier work

| Structure (SMILES) | solubility in Durotak 387-2051 ([1]; with addition of Eudragit E100) | solubility in Durotak 387-2287 ([1]; with addition of Eudragit E100) | solubility in poly(meth)acrylate adhesive polymers or the organic solvents required for processing ([1]; without Eudragit E100, result in words) | maximum flow rate of fluphenazine base [2] [μg/h·cm^2] | half-life in blood plasma [3] [h] |
| --- | --- | --- | --- | --- | --- |
| OCCN1CCN(CCCN2c3ccccc3Sc3ccc(C(F)(F)F)cc32)CC1 [fluphenazine dihydrochloride] | at least 15 %-wt. | at least 10 %-wt. | almost insoluble | – | – |
| OCCN1CCN(CCCN2c3ccccc3Sc3ccc(C(F)(F)F)cc32)CC1 [fluphenazine] | – | – | – | 2.9 | 15 |
